Reference: US12336981B2, “Compounds and compositions for the inhibition of NAMPT” (Valo Health, Inc., priority 2010, dated 2025)

Key:
[1] = system: HepG2 cells; conditions: Hasmann et al. 2003; cited from earlier work
[2] = system: murine renal cell carcinoma; conditions: Drevs et al. 2003; cited from earlier work
[3] = system: mouse mammary carcinoma; conditions: in vivo; cited from earlier work
[4] = target: T1, NAMPT (Homo sapiens, UniProt P43490); assay: Biochemical inhibition assay: NAMPT enzymatic reaction, NMN quantified by mass spectrometry; conditions: NAMPT enzymatic reaction; read-out: Biochem IC50
T1 construct: His tag; host or cells: E. coli
T1 sequence (P43490 whole entry): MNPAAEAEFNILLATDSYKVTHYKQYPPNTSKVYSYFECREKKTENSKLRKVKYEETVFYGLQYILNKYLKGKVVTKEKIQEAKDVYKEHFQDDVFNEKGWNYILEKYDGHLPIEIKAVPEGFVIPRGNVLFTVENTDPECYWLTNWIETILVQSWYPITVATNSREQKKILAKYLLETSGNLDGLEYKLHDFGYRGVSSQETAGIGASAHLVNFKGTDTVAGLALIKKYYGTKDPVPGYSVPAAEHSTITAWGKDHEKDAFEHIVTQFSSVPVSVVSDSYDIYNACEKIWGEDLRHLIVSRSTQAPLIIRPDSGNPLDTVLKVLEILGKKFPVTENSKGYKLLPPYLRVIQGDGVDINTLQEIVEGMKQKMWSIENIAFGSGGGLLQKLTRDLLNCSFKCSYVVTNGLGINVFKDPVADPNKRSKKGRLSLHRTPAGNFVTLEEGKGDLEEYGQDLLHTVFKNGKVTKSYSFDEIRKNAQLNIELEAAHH
In short: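 Inhibition of E. coli-expressed His-tagged human NAMPT, measured as NMN formation by mass spectrometry after a 30 min room-temperature reaction containing 1 μM NAM, 100 μM PRPP and 2.5 mM ATP.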

[5] = system: A2780 cells; assay: In-vitro cell proliferation assay (SRB), A2780 cells; format: cell-based; conditions: Homo sapiens, A2780, 72 h, A2780 cells, 72 hours, SRB assay; read-out: A2780 IC50
In short: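 Viable cells measured by SRB staining after 6% TCA fixation, absorbance 570 nm. Media-only background subtracted; % inhibition derived at two compound concentrations.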

[6] = system: A2780 cells; assay: Xenograft studies: A2780 tumors s.c. in C.B-17-Igh-1b-Prkdc scid mice; format: in vivo; conditions: female scid mice, p.o. BID for 5 or 10 days, dose selected from MTD study
Method: C.B-17-Igh-1b-Prkdc^scid mice (female) were injected s.c. with 5×10^6 A2780 cells (NCI) in the left flank. 10-12 days later when tumors reached 100-200 mm3 in size, mice were randomized into treatment groups of 8 mice per group including vehicle control and reference standard groups. The compounds were formulated in 60:30:10 PEG-400: D5W: Ethanol and administered p.o., at the dose volume of 10 ml/kg BID for a duration of 5 or 10 days. The dose used for efficacy was selected from the MTD (Maximum Tolerated Dose) study. Mice were weighed and tumors measured using vernier calipers every alternate day. Tumor volume was calculated according to the formula (length×width^2)/2. All animal work was approved by the Institutional Animal Care and Use Committee of Biological Resource Centre, Singapore.

[7] = system: tumor cell lines; conditions: broad range of tumor cell lines; Ravaud et al. 2005; cited from earlier work
[8] = system: U251 cells; assay: In-vitro cell proliferation assay (SRB), U251 cells; format: cell-based; conditions: Homo sapiens, U-251, 72 hours
Method: After overnight incubation at 37° C. and 5% CO2, the compound titrations were performed in a separate dilution plate by serially diluting the compounds in DMSO to make a 1000× stock. The compounds were then further diluted to 10× final concentration in culture media, whereupon 20 μL of each dilution was added to the plated cells with controls (e.g. DMSO and blank) to make a final volume of 5 200 μL. The final DMSO concentration in each well was 0.1%. The plates were then incubated for 72 hours at 37° C. in a 5% CO2 incubator. The number of viable cells was then assessed using sulforhodamine B (SRB) assay. Cells were fixed at 4° C. for 1 hour with the addition of 50 μL 30% trichloroacetic acid (TCA) to make a final concentration of 6% 10 TCA. The plates were washed four times with H2O and allowed to dry for at least 1 hour, whereupon 100 μL of a 4% SRB in 1% acetic acid solution was added to each well and incubated at room temperature for at least 30 minutes. The plates were then washed three times with 1% acetic acid, dried, and treated with 100 μL of 10 mM Tris-Base solution. The plates were then read in a microplate reader at an absorbance of 570 nm. 15 Background was generated on a separate plate with media only. Method for Determining % Inhibition First, the signals from the background plate are averaged, then the background was subtracted from the test plates.

Structure (SMILES)	IC50 [4] [µM]	IC50 [5] [µM]	Effect on tumor in A2780 xenograft [6]	also measured
O=C(/C=C/c1cccnc1)NCCCCC1CCN(C(=O)c2ccccc2)CC1 [FK866, (E)-N-[4-(1-benzoylpiperidin-4-yl)butyl]-3-(pyridine-3-yl)-acrylamide]	–	–	–	Apoptosis in HepG2 cells [1]: induces apoptosis; Activity in murine renal cell carcinoma model [2]: anti-tumor, antimetastatic, and anti-angiogenic activities; Tumor growth in mouse mammary carcinoma model [3]: delay in tumor growth
O=C(NCc1ccc(S(=O)(=O)c2cccnc2)cc1)c1cc2cnccc2[nH]1 [N-{[4-(pyridine-3-sulfonyl)phenyl]methyl}-1H-pyrrolo[3,2-c]pyridine-2-carboxamide]	0.021	0.048	delayed tumor growth	–
N#C/N=C(\NCCCCCCOc1ccc(Cl)cc1)Nc1ccncc1 [CHS-828]	–	–	–	Cell growth inhibition in tumor cell lines [7]: potently inhibit cell growth
O=C(NCc1ccc(S(=O)(=O)Nc2ccccc2OC(F)(F)F)cc1)c1cc2cnccc2[nH]1 [N-[(4-{[2-(trifluoromethoxy)phenyl]sulfamoyl}phenyl)methyl]-1H-pyrrolo[3,2-c]pyridine-2-carboxamide]	0.006	0.001	tumor stasis	–
O=C(NCc1ccc(S(=O)(=O)c2ccc(F)cc2)cc1)c1ccc2nccn2c1 [N-({4-[(4-fluorobenzene)sulfonyl]phenyl}methyl)imidazo[1,2-a]pyridine-6-carboxamide]	0.023	0.011	tumor regression	–
O=C(NCc1ccc(S(=O)(=O)c2ccccc2)cc1)c1cc2cnccc2[nH]1 [N-{[4-(benzenesulfonyl)phenyl]methyl}-1H-pyrrolo[3,2-c]pyridine-2-carboxamide]	–	–	tumor regression	IC50 [8]: 0.04 µM
O=C(NCc1ccc(S(=O)(=O)c2ccc(F)cc2)cc1)c1cc2cnccc2[nH]1 [N-({4-[(4-fluorobenzene)sulfonyl]phenyl}methyl)-1H-pyrrolo[3,2-c]pyridine-2-carboxamide]	0.038	0.008	tumor regression	–
O=C(NCc1ccc(S(=O)(=O)c2ccccc2)cc1)c1ccc2nccn2c1 [N-{[4-(benzenesulfonyl)phenyl]methyl}imidazo[1,2-a]pyridine-6-carboxamide]	0.021	0.011	tumor regression	–
O=C(NCc1ccc(S(=O)(=O)c2ccccc2OC(F)(F)F)cc1)c1cc2cnccc2[nH]1 [N-[(4-{[2-(trifluoromethoxy)benzene]sulfonyl}phenyl)methyl]-1H-pyrrolo[3,2-c]pyridine-2-carboxamide]	0.016	0.003	tumor regression	–
COc1cc(-n2cccn2)ccc1S(=O)(=O)c1ccc(CNC(=O)c2cc3cnccc3[nH]2)cc1 [N-[(4-{[2-methoxy-4-(1H-pyrazol-1-yl)benzene]sulfonyl}phenyl)methyl]-1H-pyrrolo[3,2-c]pyridine-2-carboxamide]	0.016	0.002	delayed tumor growth	–
CC(=O)c1ccc(S(=O)(=O)c2ccc(CNC(=O)c3cc4cnccc4[nH]3)cc2)cc1 [N-({4-[(4-acetylbenzene)sulfonyl]phenyl}methyl)-1H-pyrrolo[3,2-c]pyridine-2-carboxamide]	0.007	0.003	tumor regression	–
O=C(NCc1ccc(S(=O)(=O)c2cccc(Cl)c2)cc1)c1cc2cnccc2[nH]1 [N-({4-[(3-chlorobenzene)sulfonyl]phenyl}methyl)-1H-pyrrolo[3,2-c]pyridine-2-carboxamide]	0.005	0.003	tumor regression	–
O=C(NCc1ccc(S(=O)(=O)c2ccccc2)cc1)c1cc2ccncc2s1 [N-{[4-(benzenesulfonyl)phenyl]methyl}thieno[2,3-c]pyridine-2-carboxamide]	0.011	0.012	tumor regression	–
